Laboratory results from patent publication US6194423A, “Fused isoquinolines as dopamine receptor ligands” (priority 1999, dated 2001).
Entries after “also recorded” stand apart in the source; their conditions may differ.

Legend:
D1 receptor = settings: cited from earlier work
D1 receptors = assay: Adenylate cyclase activity (cAMP accumulation) in rat striatal homogenates; type: biochemical; settings: rat striatum; for agonist activity / efficacy, in words: relative to dopamine
Experimental: Adenylate cyclase activity in rat striatum. The automated HPLC method of Schulz and Mailman was used to measure adenylate cyclase activity by separating cAMP from other labeled nucleotides. […] Triplicate determinations were performed for each drug concentration.
The reaction proceeded for 15 min at 30° C. and was terminated by the addition of 100 μL of 3% sodium dodecyl sulfate (SDS). […] Samples were centrifuged (10,000×g for 8-9 min), and the supernatants injected on an HPLC system (Waters Z-module or RCM 8×10 module equipped with a C18, 10 micron cartridge). […] The radioactivity in each fraction was determined by a flow-through radiation detector (Inus Systems, Tampa, Fla.) using Cerenkov counting. Sample recovery was based on UV measurement of total unlabeled CAMP peak areas quantified using PE Nelson (Cupertino, Calif.) Model 900 data collection modules and TurboChrom software.
Data analysis for adenylate cyclase studies. Data for each sample were expressed initially as pmol/mg/min cAMP. Baseline values of cAMP were subtracted from the total amount of cAMP produced in each drug condition. Data for each drug were expressed relative to the stimulation produced by 100 μM DA.

[1] = molecular target: T1, primate D1A receptors expressed in C-6 glioma cells (Macaca mulatta, UniProt O77680); assay: Adenylate cyclase (cAMP accumulation) assay in C-6-mD1A cell membranes; type: biochemical, rhesus macaque; settings: for agonist activity / efficacy, in words: cloned primate D1A receptors in C-6 glioma cells, relative to dopamine
T1 construct: expressed in transfected cells; host or cells: C-6 glioma cells (C-6-mD1A), membranes
Experimental: Cell Cultures. C-6 glioma cells expressing the rhesus macaque D1 A receptor, (C-6-mD1A; Machida et al., 1992) were grown in DMEM-H medium containing 4,500 mg/L glucose, L-glutamine, 5% fetal bovine serum and […] G418 or 2 μg/mL puromycin. Cells were maintained in a humidified incubator at 37° C. with 5% CO2.
Membrane Preparation. Cells were grown in 75 cm^2 flasks until confluent. The cells were rinsed and lysed with 10 mL of ice cold hypoosmotic buffer (HOB) (5 mM Hepes, 2.5 mM MgCl2, 1 mM EDTA; pH 7.4) for 10 minutes at 4° C. Cells were then scraped from the flasks using a sterile cell scraper from Baxter (McGaw Park, Ill.). Flasks received a final rinse with 5 mL of HOB. The final volume of the cell suspension recovered from each flask was ca. 14 mL. Scraped membranes from several flasks were then combined. The combined cell suspension was homogenized (10 strokes), 14 mL at a time, using a 15 mL Wheaton Teflon-glass homogenizer. The cell homogenates were combined and spun at 43,000×g (Sorvall RC-5B/SS-34, Du Pont, Wilmington, Del.) at 4° C. for 20 min. The supernatant was removed, and the pellet was resuspended (10 strokes) in 1 mL of ice cold HOB for each original flask of cells homogenized. This homogenate was then spun again at 43,000×g at 4° C. for 20 min. The supernatant was removed and the final pellet was resuspended (10 strokes) in ice cold storage buffer (50 mM Hepes, 6 mM MgCl2, 1 mM EDTA; pH 7.4) to yield a final concentration of ca. 2.0 mg of protein/mL. Aliquots of the final homogenate were stored in microcentrifuge tubes at -80° C.
Adenylate cyclase assay in C-6mD1A cells. Frozen membranes were thawed and added to assay tubes (10 μg protein/tube) containing a prepared reaction mixture [100 TnM Hepes, (pH 7.4), 100 mM NaCl, 4 mM MgCl2, 2 mM EDTA, 500 μM isobutyl methylxanthine (IBMX), 0.01% ascorbic acid, 10 μM pargyline, 2 mM ATP, 5 μM GTP, 20 mM phosphocreatine, 5 units of creatine phosphokinase (CPK), 1 μM propranolol] and selected drugs. The final reaction volume was 100 μL.
Basal cAMP activity was determined by incubation of tissue in the reaction mixture with no drug added. Tubes were assayed in duplicate and, after a 15 min incubation at 30° C., the reaction was stopped by the addition of 500 μL of 0.1 N HCl. Tubes were vortexed briefly, and then spun in a BHG HermLe Z 230 M microcentrifuge for five min at 15,000×g to precipitate particulates.
Radioimmunoassay (RIA) of CAMP. The concentration of cAMP in each sample was determined with an RIA of acetylated cAMP, modified from that previously described. Iodination of cAMP was performed using a method reported by Patel and Linden. Assay buffer was 50 mM sodium acetate buffer with 0.1% sodium azide (pH 4.75). Standard curves of cAMP were prepared in buffer at concentrations of 2 to 500 fmol/assay tube. To improve assay sensitivity, all samples and standards were acetylated with 10 μl of a 2:1 solution of triethylamine:acetic anhydride. Samples were assayed in duplicate. Each assay tube (total volume 300 μL) contained 25 μL of each sample, 75 μL of buffer, 100 μL of primary antibody (sheep, anti-cAMP, 1:100,000 dilution with 1% BSA in buffer) and 100 μL of [^125 I]-cAMP (50,000 dpm/100 μL of buffer). Tubes were vortexed and stored at 4° C. overnight (approx. 18 h). Antibody-bound radioactivity was separated by the addition of 25 μL of BioMag rabbit, anti-goat IgG (Advanced Magnetics, Cambridge Mass.), followed by vortexing and incubation at 4° C. for 1 h. […]

[2] = molecular target: T2, rat striatal D1 receptors (Rattus norvegicus, UniProt P18901); assay: D1 receptor binding ([3H]SCH23390) in rat striatal homogenates; settings: for D1 binding nH (Hill slope): competition against 3H-SCH23390
T2 construct: Frozen rat striata were homogenized; from tissue; host or cells: rat striatum (adult male Sprague Dawley), washed membrane homogenate
Experimental: Dopamine receptor binding assays.
Data analysis for radioreceptor assays. […] Data were normalized by expressing the average dpm at each competitor concentration as a percentage of total binding.
Competition curves were analyzed by non linear regression to determine estimates for the K0.5 and Hill slope (nH). Data represent the mean and standard error from three independent assays for each test compound.

MPTP-treated monkey = MPTP-treated monkey model; cited from earlier work
D2 receptors = D2 receptors (Rattus norvegicus, UniProt P61169)
Chain of D2 receptors (P61169 whole entry): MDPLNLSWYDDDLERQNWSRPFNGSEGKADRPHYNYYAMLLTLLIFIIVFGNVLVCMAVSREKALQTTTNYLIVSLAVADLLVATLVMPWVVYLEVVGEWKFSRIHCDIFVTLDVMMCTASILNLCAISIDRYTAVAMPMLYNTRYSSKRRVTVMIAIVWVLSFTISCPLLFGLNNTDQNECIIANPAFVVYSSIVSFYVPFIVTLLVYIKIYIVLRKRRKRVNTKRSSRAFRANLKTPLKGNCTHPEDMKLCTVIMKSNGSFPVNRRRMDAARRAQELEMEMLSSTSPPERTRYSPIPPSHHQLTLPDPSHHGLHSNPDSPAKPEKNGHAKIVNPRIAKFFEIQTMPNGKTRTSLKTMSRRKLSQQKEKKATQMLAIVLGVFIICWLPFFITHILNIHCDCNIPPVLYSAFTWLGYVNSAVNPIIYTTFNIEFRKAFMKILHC

T1 sequence (O77680 whole entry): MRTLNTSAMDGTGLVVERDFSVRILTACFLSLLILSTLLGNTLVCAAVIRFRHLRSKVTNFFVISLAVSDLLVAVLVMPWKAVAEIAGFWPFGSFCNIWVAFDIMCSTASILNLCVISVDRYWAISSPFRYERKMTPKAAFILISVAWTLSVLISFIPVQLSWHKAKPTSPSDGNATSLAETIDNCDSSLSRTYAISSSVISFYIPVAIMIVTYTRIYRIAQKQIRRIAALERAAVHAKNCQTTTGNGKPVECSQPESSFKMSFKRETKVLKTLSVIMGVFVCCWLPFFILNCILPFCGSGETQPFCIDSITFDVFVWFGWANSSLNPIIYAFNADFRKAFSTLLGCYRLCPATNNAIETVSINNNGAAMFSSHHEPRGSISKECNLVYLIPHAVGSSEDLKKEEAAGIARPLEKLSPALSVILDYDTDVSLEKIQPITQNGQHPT
T2 sequence (P18901 whole entry): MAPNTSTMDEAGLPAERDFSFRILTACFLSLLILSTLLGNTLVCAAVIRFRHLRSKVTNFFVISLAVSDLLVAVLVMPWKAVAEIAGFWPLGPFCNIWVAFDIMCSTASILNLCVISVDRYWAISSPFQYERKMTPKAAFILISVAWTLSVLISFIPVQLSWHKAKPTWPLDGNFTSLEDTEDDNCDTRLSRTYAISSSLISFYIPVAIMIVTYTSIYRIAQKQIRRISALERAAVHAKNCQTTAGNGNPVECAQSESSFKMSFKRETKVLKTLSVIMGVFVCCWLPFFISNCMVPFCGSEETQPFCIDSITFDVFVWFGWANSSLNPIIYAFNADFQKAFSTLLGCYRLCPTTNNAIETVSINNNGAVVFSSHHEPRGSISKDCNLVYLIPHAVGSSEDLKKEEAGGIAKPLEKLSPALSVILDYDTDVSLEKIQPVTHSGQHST

| Structure (SMILES) | intrinsic efficacy at D1 receptor, in words (D1 receptor) | agonist activity / efficacy, in words (D1 receptors) | agonist activity / efficacy, in words [1] | D1 binding nH (Hill slope) ([2]; rat striatal homogenates) | other results |
| --- | --- | --- | --- | --- | --- |
| Oc1cc2c(cc1O)[C@H]1c3ccccc3CN[C@@H]1CC2 [6aR,12bS] | high affinity full agonist at the D1 receptor |  |  |  |  |
| Oc1cc2c(cc1O)C(c1ccccc1)CNCC2 (single isomer, unassigned) [SKF 38393] | generally lacked full intrinsic efficacy | partial agonist | partial agonist | 0.75 ± 0.08 | agonist activity / efficacy, in words ([1]; listed as (+)-2): only of partial efficacy |
| CN1CCc2cc(Cl)c(O)cc2[C@@H](c2ccccc2)C1 [SCH23390] |  |  |  | 1.05 ± 0.01 |  |
| Oc1ccc2c(c1O)Cc1cccc3c1C2CNC3 (racemic) [dinapsoline, (±)-8,9-dihydroxy-2,3,7,11b-tetrahydro-1H-naphtho[1,2,3-de] isoquinoline] |  | full agonist activity; also recorded: full agonist relative to dopamine | full efficacy; also recorded: full agonist activity; also recorded: full agonist relative to dopamine | 0.66 | EC50 (D1 receptors; read-out: EC50 in stimulating synthesis of cAMP via D1 receptors): ~30 nM; EC50 ([1]; C-6-mD1 cells, average of two experiments in duplicate, read-out: EC50 in stimulating synthesis of cAMP via D1 receptors): ~30 nM; slope of D1 competition curve, in words ([2]; FIG. 3): shallow competition curve; also recorded: shallower slopes; D1 affinity, in words ([2]; compared with dihydrexidine, rat striatal homogenates, FIG. 3): high affinity for dopamine D1 receptors; also recorded: almost identical affinity as dihydrexidine; D1 binding nH (Hill slope) ([2]; rat striatal homogenates, listed as (±)-4): 0.66 ± 0.01 |
| NC[C@@H]1O[C@H](C23CC4CC(CC(C4)C2)C3)Cc2c1ccc(O)c2O [Example A-77636] |  |  |  |  | anti-parkinsonian effects (MPTP-treated monkey): exceptional anti-parkinsonian effects |
| CN(C)CCCN1c2ccccc2Sc2ccc(Cl)cc21 [Chlorpromazine] |  |  |  |  | D2 binding nH (Hill slope) (D2 receptors; competition against 3H-spiperone, rat striatal homogenates): 0.93 ± 0.01 |
| C=CCN1CCc2c(cc(O)c(O)c2Cl)C(c2ccccc2)C1 (stereo not drawn) [SKF 82958] | not to have full intrinsic efficacy in preparations with decreased receptor reserve |  |  |  |  |
| Oc1cc2c(cc1O)[C@H]1c3ccccc3CN[C@@H]1CC2 [dihydrexidine, (+)-trans-10,11-dihydroxy-5,6,6a,7,8,12b-hexahydrobenzo[a]phenanthridine] |  | full agonist relative to dopamine | full efficacy; also recorded: full agonist relative to dopamine | 0.65 ± 0.01 | anti-parkinsonian effects (MPTP-treated monkey): exceptional anti-parkinsonian effects; slope of D2 competition curve, in words (D2 receptors; FIG. 6, compared with chlorpromazine): shallower than for the prototypical D2 antagonist chlorpromazine; slope of D1 competition curve, in words ([2]; FIG. 3): shallower slopes |
